We go through one substance from patent publication US9359418B2, “Inhibitors of the T cell-specific alternative p38 activation pathway and methods of use” (The United States of America, as represented by the …, priority 2012, dated 2016).

Assay [1] relates to p38 (alternative activation pathway). The experiment in a line: In vitro kinase assay: ATF2 phosphorylation by Zap70-activated p38. The assay is classed as biochemical. As to conditions: (11R)-71-85 0.2-4.0 μg, (11R)-Ctrl 4.0 μg; 30 minutes at 30° C.; p38 activated with Zap70. On the procedure: Purified p38 proteins were activated by incubating with active Zap70 in kinase buffer for 1 hour. (11R)-71-85 or (11R)-Ctrl was then added and incubated for 30 minutes at 30° C. One μg ATF2 and 10 μCi [^32P]ATP were then added and incubated for 45 minutes at 30° C. Phosphorylated products were resolved by SDS-PAGE, transferred to nitrocellulose membranes, and visualized by phosphorimager.
To test whether (11R)-71-85 can inhibit the alternative p38 activation pathway in vitro, an assay was performed to detect phosphorylation of activating transcription factor 2 (ATF2), a target of activated p38, in the presence and absence of (11R)-71-85. Purified p38 proteins were activated by incubation with active Zap70 in kinase buffer for 1 hour. (11R)-71-85 (0.2, 0.5, 1.0, 2.0 or 4.0 μg) or (11R)-Ctrl (4.0 μg) was then added and incubated for 30 minutes at 30° C. One μg ATF2 and 10 μCi [^32P]ATP were added and incubated for 45 minutes at 30° C. Phosphorylated products were resolved by SDS-PAGE, transferred to nitrocellulose membranes, and visualized by phosphorimager. […] In addition, the decrease in ATF2 phosphorylation was dependent on the dose of (11R)-71-85.

For assay [2], the system named is Irf4 mRNA. The experiment in a line: Irf4 mRNA in splenocytes after intraperitoneal injection. The assay is classed as in vivo, mice. As to conditions: 40 μg intraperitoneally; splenocytes 4 hours after injection, anti-CD3 plus anti-CD28 24 hours; versus vehicle control. On the procedure: FIG. 7 is a graph showing expression of interferon regulatory factor 4 (Irf4) mRNA following in vivo treatment with (11R)-71-85. (11R)-71-85 (40 μg) or vehicle control was injected intraperitoneally into wild type mice. Four hours after injection, splenocytes were collected and stimulated with soluble anti-CD3 plus anti-CD28 for 24 hours. Irf4 mRNA expression was assessed by quantitative real time PCR.
(11R)-71-85 (40 μg) or vehicle control was injected intraperitoneally into wild type mice. Four hours after injection, splenocytes were collected and stimulated with soluble anti-CD3 plus anti-CD28 for 24 hours. Irf4 mRNA expression was assessed by quantitative real time PCR.

The test system of assay [3] is PANC02 tumors. The experiment in a line: PANC02 model, tumor vascularization (CD31 staining). The assay is classed as in vivo. As to conditions: 80 μg intra-tumor every other day for 2.5 weeks; compared with control treated mice. On the procedure:
FIG. 11 is a pair of images showing that intra-tumor injection of (11R)-71-85 reduces tumor vascularization. WT C57BL/6 mice were injected with 7.5×10^5 PANC02 cells and 16 days later were injected with 80 μg of either (11R)-71-85 or (11R)-Scrambled. Mice received intra-tumor injections every other day for 2.5 weeks. Twenty-four hours after the last injection, tumors were collected, fixed in formalin, and stained for the endothelial marker CD31, an indicator of tumor vascularization.
Tumor vascularization was also assessed in WT mice treated with (11R)-71-85. WT C57BL/6 mice were injected with 7.5×10^5 PANC02 cells. After 16 days, mice received intra-tumor injections of 80 μg of (11R)-71-85 or (11R)-Scrambled every other day for 2.5 weeks. Twenty-four hours after the last injection, tumors were collected, fixed in formalin, and stained for the endothelial marker CD31, an indicator for tumor vascularization.

The test system of assay [4] is T cells. The experiment in a line: Inflammatory cytokine production by T cells (flow cytometry). The assay is classed as cell-based. The source says: FIGS. 4A-4B are a series flow cytometry plots showing inflammatory cytokine secretion by CD4^+ (FIG. 4A) and CD8^+ (FIG. 4B) T cells. T cells were purified from spleen and stimulated with anti-CD3 plus anti-CD28 for 3 days. Cells were then left unstimulated overnight and treated with the indicated concentrations of (11R)-71-85, control peptide (11R)-Ctrl, or DMSO (no peptide). After treatment, cells were restimulated with either anti-CD3 plus anti-CD28, or PMA plus ionomycin supplemented with monensin. Cytokine expression was measured by flow-cytometry.
To evaluate cytokine production, T cells were purified from spleen and stimulated with anti-CD3 plus anti-CD28 for 3 days. Cells were then left unstimulated overnight and treated with 1 or 2 μM (11R)-71-85 or control peptide (11R)-Ctrl, or with DMSO only. After treatment, cells were restimulated with either anti-CD3 plus anti-CD28 (to stimulate the TCR and the alternative p38 pathway), or PMA plus ionomycin supplemented with monensin (to stimulate the classical p38 pathway). Cytokine expression was measured by flow-cytometry.
On the technique in general: In flow cytometry, cells or beads pass a laser one at a time.

Take “(11R)-71-85: fusion protein: 11 arginine residues added to the N-terminus of the Gadd45α 71-85 peptide (LQIHFTLIQAFCCEN; N-terminal 11 arginine; UniProt P24522 71-85, looked up, fragment)”: the “phosphorylation of ATF2” value in assay [1] is reported as “decrease in phosphorylation of ATF2”. In assay [2], the “Irf4 mRNA expression” value is “significantly inhibited”. In assay [3], the “CD31 staining (tumor vascularization)” value is “significant reduction”. The “inhibition of production of TNF-α and IFN-γ, 2 μM compared with 1 μM” value in assay [4] (2 μM versus 1 μM) is listed as “to a greater extent”. Besides, the “cytokine production in response to PMA plus ionomycin” value in assay [4] (1 or 2 μM, restimulated with PMA plus ionomycin) is on record as “no significant effect”. Moreover, the “production of TNF-α in response to TCR stimulation” value in assay [4] (1 or 2 μM, restimulated with anti-CD3 plus anti-CD28) was “inhibits”.
